Peptide text beside a SMILES is read from it.

The test system of one data set is pepsin. The note with it: in all liposomal formulations; SGF with pepsin 3.2 mg/mL, 2 h, 37 ± 0.5°C, HPLC.
In the next data set the test system is S. enteritidis. Kind of data set: Microtitration assay (critical dilution), activity in AU. The format is cell-based, Salmonella enteritidis. As to the method: The second activity test was carried out using the same strain (S. enteritidis) in polystyrene 96-well micro-assay plates (Microtest, Becton–Dickinson Labware, MD, USA) as described by Ennaas et al. ([2016]). Briefly, fractions were added to microplates and diluted 2-folds with LB broth. Then, wells were seeded with ~1 × 10^4 CFU of strain per well using log-phase culture diluted in LB to 0.5–1.0 × 10^6 CFU ml^−1. The plates were incubated for 18 h at 37°C. After incubation, OD at 595 nm was measured using an Infinite® F200 PRO photometer (Tecan US Inc., Durham, NC). Antimicrobial activity results were expressed as arbitrary units per milliliter (AU ml^−1) that calculated as follows:
AU ml^−1 = (1,000/100) × 2 n, where n = number of inhibited wells.

Experimental for pepsin: The dissolution experiment was performed according to Liu et al. ([2012]) with some modifications. Different samples were placed in a simulated gastric fluid for 2 h (SGF: 0.2 g of NaCl dissolved in 0.7 mL of HCl and filled up to 100 ml with distilled water then pepsin was added at a concentration of 3.2 mg/mL). Then, the dissolution was performed in simulated intestinal fluid (SIF: 6.8 g of potassium phosphate monobasic sodium hydroxide with a pH adjusted to 7.4 with 2N sodium hydroxide to a volume of 100 mL and a concentration of 0.2 mg/mL bovine bile extract), the pH was adjusted to 7.4. Pancreatin was added at a concentration of 20 mg/mL (equivalent to a protease activity of 500 U/mL). The dissolution was performed for 4 h at a temperature of 37 ± 0.5°C with stirring at 140 rpm. To perform the experiment 3 ml of the individual suspensions of liposomes was added to 3 mL of gastric fluid and samples of 500 μL of medium are removed at intervals of 1 h for the gastric fluid portion and at 0, 15, 30, 60, 120, 240 min during the intestinal dissolution. The contents MccJ25 samples were determined by HPLC. […] The blank was performed in similar conditions with a solution of non-encapsulated MccJ25.

As to `CC[C@H](C)[C@H](NC(=O)CNC(=O)[C@@H](NC(=O)[C@H](Cc1ccccc1)NC(=O)[C@H](Cc1ccc(O)cc1)NC(=O)[C@@H]1CCC(=O)NCC(=O)NCC(=O)N[C@@H](C)C(=O)NCC(=O)N[C@@H](Cc2cnc[nH]2)C(=O)N[C@@H](C(C)C)C(=O)N2CCC[C@H]2C(=O)N1)C(C)C)C(=O)NCC(=O)N[C@H](C(=O)N1CCC[C@H]1C(=O)N[C@H](C(=O)N[C@@H](CO)C(=O)N[C@@H](Cc1ccccc1)C(=O)N[C@@H](Cc1ccc(O)cc1)C(=O)NCC(=O)O)[C@@H](C)CC)[C@@H](C)O` [MccJ25, microcin J25] (HELM PEPTIDE1{G.G.A.G.H.V.P.E.Y.F.V.G.I.G.T.P.I.S.F.Y.G}$PEPTIDE1,PEPTIDE1,1:R1-8:R3$$$V2.0), in the data set on pepsin, the “Resistance of MccJ25 to gastric digestion” value is given as “resisted gastric digestion”.
Turning to `CC[C@H](C)[C@H](NC(=O)CNC(=O)[C@@H](NC(=O)[C@H](Cc1ccccc1)NC(=O)[C@H](Cc1ccc(O)cc1)NC(=O)[C@@H]1CCC(=O)NCC(=O)NCC(=O)N[C@@H](C)C(=O)NCC(=O)N[C@@H](Cc2c[nH]cn2)C(=O)N[C@@H](C(C)C)C(=O)N2CCC[C@H]2C(=O)N1)C(C)C)C(=O)NCC(=O)N[C@H](C(=O)N1CCC[C@H]1C(=O)N[C@H](C(=O)N[C@@H](CO)C(=O)N[C@@H](Cc1ccccc1)C(=O)N[C@@H](Cc1ccc(O)cc1)C(=O)NCC(=O)O)[C@@H](C)CC)[C@@H](C)O` [MccJ25, microcin J25] (HELM PEPTIDE1{G.G.A.G.H.V.P.E.Y.F.V.G.I.G.T.P.I.S.F.Y.G}$PEPTIDE1,PEPTIDE1,1:R1-8:R3$$$V2.0; C-terminus assumed; bridges inferred), the “Specific activity (AU/mg)” value in the data set with S. enteritidis (activity per mg protein (Lowry method)) is on record as 181,352 AU/mg. The “Inhibitory activity (AU/ml)” value with S. enteritidis (microtitration assay, S. enteritidis, 2-fold dilutions in LB, 18 h at 37°C, OD 595 nm) is recorded as 524,288 AU/ml.
